What was measured:
Assay type in all cases: functional
[1] = organism: Rattus norvegicus; experiment: Ability to stimulate the production of cyclic AMP by rat retinal adenylate cyclase at a concentration of 0.1 uM
[2] = organism: Rattus norvegicus; experiment: Ability to stimulate the production of cyclic AMP by rat retinal adenylate cyclase at a concentration of 10 uM
[3] = organism: Rattus norvegicus; experiment: Ability to stimulate the production of cyclic AMP by rat retinal adenylate cyclase at a concentration of 1 uM

SMILES	Stimulation [1] [%]	Stimulation [2] [%]	Stimulation [3] [%]
C[C@H](CN)c1ccc(O)c(O)c1	1.6	39.1	11.7
NCC(c1ccccc1)c1ccc(O)c(O)c1 (stereo not given)	4.9	97.1	16.3
CC(CN)c1ccc(O)c(O)c1 (racemic)	5.9	10.5	-3.5
CC(CN)c1ccc(O)c(O)c1 (single isomer, unassigned)	1.5	41	6
NCCc1ccc(O)c(O)c1 [DOPAMINE]	31.4	205.4	106.4

Source: ChEMBL document CHEMBL1123627, “Effect of beta-alkyl substitution on D-1 dopamine agonist activity: absolute configuration of beta-methyldopamine” (1987)
